Measurements published in PubChem BioAssay (NCI).
“And” between values parts separate entries of the source, which are not always exact repeats. Equal entries are not always repeated.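 Test compounds were applied to cells in 96-well plates for 48 hours at 5 doses. Here, GI50 denotes the concentration required for 50% inhibition of growth. Definition used: TGI = concentration required for complete inhibition of growth.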

Columns and labels:
Test in all cases: NCI anticancer screen, dose series, 48 h
[1] = test system: MALME-3M melanoma
[2] = test system: MCF7 breast
[3] = test system: SN12C renal
[4] = test system: EKVX NSCLC
[5] = test system: SNB-75 CNS
[6] = test system: HCC-2998 colon
[7] = test system: PC-3 prostate
[8] = test system: OVCAR-4 ovarian
[9] = test system: TK-10 renal
[10] = test system: A549 NSCLC

SMILES	GI50 [1] [µM]	TGI [1]	GI50 [2]	TGI [2]	GI50 [3] [µM]	TGI [3]	GI50 [4] [µM]	TGI [4]	GI50 [5] [µM]	TGI [5]	GI50 [6] [µM]	TGI [6]	GI50 [7] [µM]	TGI [7]	GI50 [8] [µM]	TGI [8]	GI50 [9] [µM]	TGI [9]	GI50 [10] [µM]	TGI [10]
CCCCCCCCCCCCCCCCCCNC(=O)[C@H]1CSC(c2ccc(F)c(OC)c2)N1 (some centres undefined)	0.951	1.82 µM	0.141 µM	0.541 µM	0.805	1.72 µM	0.813	1.6 µM	0.87	1.63 µM	1.05	1.94 µM	1.55	12 µM	1.38	3.62 µM				
CNc1ccc(N=Nc2cccc3ncccc23)cc1	> 58.4	> 100 µM	0.0261 µM	> 100 µM	36.5	> 100 µM	3.62	> 100 µM	21.2	> 100 µM	33.5	> 100 µM	15.3	> 100 µM			> 100	> 100 µM	50.9	> 100 µM
Nc1ccc2c(SCC(=O)Nc3ccccc3-c3ccccc3NC(=O)CSc3c4ccccc4nc4cc(N)ccc34)c3ccccc3nc2c1		56 µM		> 100 µM		> 87.2 µM		> 100 µM		> 96.4 µM		61.7 µM		54.6 µM		78.9 µM		75.3 µM		> 100 µM
COc1ccc(-c2nn(-c3cccc(Cl)c3)cc2/C=C2\C(=N)N(c3ccccc3)N=C2N)cc1	4.9	46.1 µM	2.2 µM	33.5 µM	3.33	> 100 µM	1.5	60.5 µM	18.8	98.6 µM	0.627	4.42 µM	0.601	> 59 µM	2.13	> 89.1 µM	7.77	> 95.8 µM	0.54	> 82.2 µM
O=C1Nc2ccc(Br)cc2C1=Nc1ccc(Cl)cc1		48.5 µM		27.1 µM		31.2 µM		47.1 µM				39.7 µM		> 100 µM				51.4 µM		> 100 µM
C#CCn1cc(C=C2C(=O)NC(=S)NC2=O)c2cc(Cl)ccc21	1.98	4.95 µM	1.67 µM	3.46 µM	2.05	4.49 µM	2.14	5.92 µM	1.37	3.67 µM	1.75	3.39 µM	2.57	6.89 µM	2.28	7.01 µM	2.36	5.95 µM	3.63	16.6 µM
O=C1c2c(O)ccc(O)c2C(=O)c2c(NCCNCCO)ccc(NCCNCCO)c21		1.45 µM and 0.955 µM and 0.974 µM	< 0.01 µM and < 0.005 µM and 0.00426 µM	0.64 µM and 0.663 µM and 1.23 µM		0.162 µM and 1.57 µM and 0.214 µM	0.564	3.68 µM and 4.55 µM and 1.28 µM		0.122 µM and 0.541 µM and 0.218 µM		1.04 µM and 0.795 µM and 0.908 µM		1.29 µM and 1.45 µM and 1.55 µM		2.08 µM and 0.744 µM and 1.4 µM		1.36 µM and 0.654 µM and 2.05 µM		0.418 µM and 0.627 µM
COc1ccc(-c2conc2-c2ccccc2)cc1	4.95	> 80.1 µM	0.0865 µM	> 100 µM	1	> 100 µM	2.64	> 100 µM	0.109	0.455 µM	0.534	14.7 µM	0.363	> 100 µM	2.35	> 100 µM	15.3	> 100 µM	0.502	> 100 µM
O=C(Nc1cccc(Cl)c1)c1cc(Cl)ccc1O	0.4	2.66 µM	1.75 µM	> 26.6 µM	0.491	4.15 µM	1.83	> 26.3 µM	0.756	3.86 µM	2.94	> 29.6 µM	2.6	> 25.2 µM	1.46	> 100 µM	4.36	12.6 µM	2.67	> 79.3 µM
COC(=O)C1=C(C(=O)OC)C(C(=O)OC)C(C(=O)OC)C(C(=O)OC)(C(=O)OC)C(C(=O)OC)=C1C(=O)OC (centres undefined)		15.7 µM		33.6 µM		27.5 µM		35.4 µM		34.5 µM		31 µM		30.1 µM		> 52 µM		29 µM		46.4 µM
COc1ccccc1-c1nccc(COc2ccccc2C[C@@H](Oc2ncnc3sc(-c4ccc(F)cc4)c(-c4ccc(OCCN5CCN(C)CC5)c(Cl)c4C)c23)C(=O)O)n1	1.63	3.37 µM	0.0786 µM	1.95 µM	1.75	3.83 µM	1.32	5.03 µM	0.0348	1.29 µM	1.31	2.78 µM	1.96	4.81 µM	3.55	14.6 µM	3.46	14.9 µM	10	31.7 µM
Cc1nc2cc(Nc3nc(Nc4ccc(F)cc4)nc(-c4ccc(Cl)cc4)n3)ccc2n1Cc1ccccc1	5.29	22.4 µM	3.1 µM	> 100 µM	46.4	> 100 µM			2.2	10.5 µM	6.36	> 100 µM	3.69	> 100 µM	2.86	17.6 µM			6.18	36.9 µM
COc1cc(/C=C2/C(=O)N(C(=O)c3ccccc3O)N=C2C)ccc1O		> 100 µM		> 100 µM		> 39.1 µM		> 77.7 µM				> 100 µM		> 100 µM		> 100 µM		> 100 µM		> 100 µM
C=C1C(=O)C23CC1CCC2C12CO[C@@]3(O)[C@@H](O)C1C(C)(C)C=CC2=O (some centres undefined)	6.11			11.6 µM	2.03	3.87 µM and 4.05 µM	18.7	11.8 µM and 34.7 µM	13.6	12.7 µM and 26.4 µM	20.7			7.53 µM			4.51	1.55 µM and 11.2 µM	16.3	7.63 µM and 34.3 µM
CC(=O)Nc1ccc2c(c1)CN1C(=O)c3ccccc3C1=N2	> 100	> 100 µM	> 100 µM	> 100 µM			> 100	> 100 µM	> 100	> 100 µM	> 100	> 100 µM	> 100	> 100 µM	> 100	> 100 µM			> 100	> 100 µM
